Measured values: ChEMBL document CHEMBL1157386, “A C-3 methylated isocembranoid and 10-oxocembranoids from a formosan soft coral, Sinularia grandilobata” (J Nat Prod, 2008)
Converted amounts (≈) assume the structure as drawn. The source made the active and inactive calls. No cut-off for these calls is given here.

Experiments:
HepG2 = experiment: Cytotoxicity against human HepG2 cells by MTT assay; type: functional, cell-based
MCF7 = experiment: Cytotoxicity against human MCF7 cells by MTT assay; type: functional, cell-based
A549 = experiment: Cytotoxicity against human A549 cells by MTT assay; type: functional, cell-based
MDA-MB-23 = experiment: (§1) Cytotoxicity against human […] by MTT assay; type: functional, cell-based
RAW264.7 [1] = experiment: Antiinflammatory activity in LPS-stimulated mouse RAW264.7 cells assessed as reduction of iNOS levels at 50 uM by immunoblot analysis relative to control; type: functional
RAW264.7 [2] = experiment: Antiinflammatory activity in LPS-stimulated mouse RAW264.7 cells assessed as reduction of COX2 expression by immunoblot analysis relative to control; type: functional, cell-based
RAW264.7 [3] = experiment: Induction of iNOS levels in LPS-stimulated mouse RAW264.7 cells at 50 uM by immunoblot analysis relative to control; type: functional
RAW264.7 [4] = experiment: Induction of COX2 expression in LPS-stimulated mouse RAW264.7 cells at 50 uM by immunoblot analysis relative to control; type: functional
[5] = as §1; type: functional, cell-based

**Q.** For `C/C1=C/C(=O)C[C@@H](C)CC/C(C(C)(C)O)=C\C=C(/C)CCC1`, which Activity (HepG2) is on record?
**A.** inactive

**Q.** What about the Activity (MCF7) of the same compound?
**A.** inactive

**Q.** What about the Activity (A549) of the same compound?
**A.** inactive

**Q.** And the Activity (MDA-MB-23)?
**A.** inactive

**Q.** With `CO[C@@]1(C(C)(C)O)/C=C/[C@](C)(O)CC/C=C(\C)CC(=O)C[C@@H](C)CC1` (relative stereo) as the compound, how does the Activity (HepG2) read?
**A.** inactive

**Q.** What about the Activity (MCF7) of the same compound?
**A.** inactive

**Q.** What about the Activity (A549) of the same compound?
**A.** inactive

**Q.** What about the Activity (MDA-MB-23) of the same compound?
**A.** inactive

**Q.** For `C/C1=C\CC[C@]2(C)O[C@H]2/C=C(/C(C)(C)O)CC[C@H](C)CC(=O)C1` (relative stereo) [GRANDILOBATIN B], which Activity (HepG2) is on record?
**A.** inactive

**Q.** And the Activity (MCF7)?
**A.** inactive

**Q.** And the Activity (A549)?
**A.** inactive

**Q.** What about the Activity (MDA-MB-23) of the same compound?
**A.** inactive

**Q.** And the Activity (RAW264.7 [1])?
**A.** inactive

**Q.** And the Activity (RAW264.7 [2])?
**A.** inactive

**Q.** What about the Activity (RAW264.7 [3]) of the same compound?
**A.** 112.4%

**Q.** What about the Activity (RAW264.7 [4]) of the same compound?
**A.** 117.3%

**Q.** For `C/C1=C\CCC(=O)[C@H](C)/C=C(/C(C)(C)O)CC[C@H](C)CC(=O)C1`, which Activity (HepG2) is on record?
**A.** inactive

**Q.** And the Activity (MCF7)?
**A.** inactive

**Q.** And the Activity (A549)?
**A.** inactive

**Q.** And the Activity (MDA-MB-23)?
**A.** inactive

**Q.** With `C/C1=C\C=C(\C(C)(C)O)CC[C@H](C)CC(=O)C/C(C)=C/CC1` [GRANDILOBATIN D] as the compound, how does the Activity (HepG2) read?
**A.** inactive

**Q.** What about the Activity (MCF7) of the same compound?
**A.** inactive

**Q.** What about the Activity (A549) of the same compound?
**A.** inactive

**Q.** And the IC50 [5]?
**A.** 15.8 mg/L (≈ 51.9 µM)

**Q.** And the Activity (RAW264.7 [1])?
**A.** 28.7%

**Q.** What about the Activity (RAW264.7 [2]) of the same compound?
**A.** inactive
